# Values quoted from earlier work, collected in patent US20140308726A1, “Controlling Bacterial Biofilms in Ethanol Production” (ANITOX CORPORATION, priority 2011, published 2014).
# Where two headings read alike, the source gives them in different places.
# Tests used:
# [1] = system: Lactobacillus; details: 8.6 ppm Nisin combined with 0.1% Tween 20
# [2] = system: yeast; details: 8 g/L; beet molasses batch fermentation
# [3] = system: Lactobacillus; details: 600 mg/L
compound,measurement,setting,value
Nisin,Delay of the lag phase of lactobacillus,[1],12 h
CC(O)C(=O)O (centres unmarked) [lactic acid],Reduction of alcohol production rate,[2],80%
same,Reduction of yeast viability,[2],95%
O=C(O)CCC(=O)O [Succinic acid],Reduction of Lactobacillus concentrations,[3]; by itself,78%
same,Reduction of Lactobacillus concentrations,[3]; in the presence of ethanol,up to 96%
